Results reported in patent US20090022772A1, “BIOABSORBABLE ELASTOMERIC ARTERIAL SUPPORT DEVICE AND METHODS OF USE” (MediVas, LLC, priority 2007, published 2009).

Assay: Properties and self-adherence of PEA 4-Phe-4/EAC-2 mixture films, dry and after soaking in water
Format: physicochemical
Design: key to Self-adherence: (—) means: no self-adherence observed
Conditions: for Self-adherence: folded film in water 24 hours
Source text: At the first stage, this Example addresses the question of whether invention cross-linking agents can be used as plasticizers without causing the composition to undesirably adhere to the surface of other materials (for example, steel, and other medical device surfaces).

Self-adherence (PEA 4-Phe-4/EAC-2 40/60 w/w): — | Film properties, Dry (PEA 4-Phe-4/EAC-2 60/40 w/w): Hard | Self-adherence (PEA 4-Phe-4/EAC-2 60/40 w/w): — | Film properties, Wet (PEA 4-Phe-4/EAC-2 60/40 w/w, pre-soaked in water at room temperature for 24 hours): Elastic | Film properties, Dry (PEA 4-Phe-4/EAC-2 80/20 w/w): Hard | Self-adherence (PEA 4-Phe-4/EAC-2 80/20 w/w): —
SMILES: C=C(C)C(=O)NC(Cc1ccccc1)C(=O)OCCCCCCOC(=O)C(Cc1ccccc1)NC(=O)C(=C)C [Phe-6-MA, dimethacrylate of bis(L-Phe)-1,6-hexanediol diester]
